# According to publication PMC5071857, “A unique peptide deformylase platform to rationally design and challenge novel active compounds” (Scientific Reports, 2016):
# Read-outs that look alike come from different tables or passages of the source.
# Assays:
# E. coli AG100 = assay: MIC by microdilution, E. coli AG100; type: cell-based; conditions: 18 h at 37 °C, average of three assays; for MIC: Escherichia coli, AG100, without PMBN; for MIC AG100: with PMBN at 1/5 of its MIC
# Description: (§1) Two E. coli strains, one B. subtilis strain, one S. aureus strain, one E. faecalis strain, one S. agalactiae strain and three Enterobacter aerogenes strains previously described were used. Briefly, AG100 was an E. coli wild type strain and AG100A its acrAB^- derivative. EA289 was a Kan^s derivative of an E. aerogenes multi-drug resistant (MDR) clinical isolate overexpressing AcrAB-TolC efflux pumps, and EA294 and EA298 its acrAB^- and tolC^- derivatives respectively. Strains were routinely grown at 37 °C on Luria-Bertani (LB) agar or in Mueller-Hinton II broth (MH), supplemented with kanamycine (50 μg.mL^−1) for AG100A, EA294 and EA298.
# (§2) MIC values of antibiotics were determined by the microdilution method in liquid MH media in microplates in the absence or presence of chemosensitizers/modulators (e.g. PMBN, PAβN), as previously described. Permeabilization, blocking of efflux pumps, and isolates with different levels of porin or efflux expression were used to assess the involvement of the membrane barrier in antibiotic activity.
# (§3) Susceptibilities were determined in 96-wells microplates with an inoculum of 2 × 10^5 cfu in 200 μL of MH broth containing two-fold serial dilutions of each antibiotics or compounds. Molecules were tested alone or in combination with other molecules in equimolar ratio. MICs were realized in the absence and in the presence of a membrane permeabilizer, the polymyxine B nonapeptide (PMBN) used at 51.2 mg/L (1/5 or 1/10 of its direct MIC previously determined). Actinonin and ciprofloxacin were used as internal antibiotic reference. […] Each test was systematically performed in triplicate. The average of three independent assays is presented in μg/mL in the respective tables.
# SaPDF [1] = molecular target: T1, SaPDF (Streptococcus agalactiae serotype III, UniProt Q8E378, S2A); assay: biochemical; conditions: SaPDF KI*app, PDFI pre-incubated with enzyme 10 min at 37 °C, started by 2 mM Fo-Met-Ala-Ser; 40 nM SaPDF
# T1 construct: the recombinant protein contains all residues of the 204 amino acids mature protein; made in house; host or cells: E. coli Rosetta 2(DE3)pLysS
# SaPDF [2] = molecular target: T1, SaPDF; assay: biochemical; conditions: for Ki: SaPDF KI, no pre-incubation, assay initiated by addition of enzyme, 40 nM SaPDF, 37 °C; for SaPDF KI/KI*app: enhancement potency (slow tight-binding)
# Method: (§4) Enzymatic activity was measured by a spectrophotometric assay where peptide deformylase activity is coupled to that of formate dehydrogenase. The formate released by the deformylation reaction is used by FDH to convert NAD in NADH, the production of which being measured over time at 340 nm and controlled temperature (37 °C). The 200 μL reaction mixture contained 50 mM HEPES-NaOH pH7.5, 12 mM NAD^+, 4.5 U/mL FDH, 1 mM NiCl2 and PDF enzyme (either 40 nM SaPDF or 10 nM EcPDF or 100 nM AtPDF1B) previously diluted in presence of 0.1 mg/mL BSA. The reaction was started by addition of 1–6 mM Fo-Met-Ala-Ser. Kinetics parameters (kcat, Km) were derived from iterative non-linear least square fits using the Michaelis-menten equation based on the experimental data (Sigma-Plot, Kinetics module).
# (§5) 1/KI*app is the slope of the v0/vi curve in function of compound concentration, where v0 and vi are the initial reaction rates in absence and presence of compound, respectively.
# (§6) Determination of KI values was performed with a slightly modified protocol: reaction was started by addition of enzyme instead of Fo-Met-Ala-Ser, the latter being directly added to the mixture containing increasing concentrations of each compound. No pre-incubation of enzyme in presence of compound was done. 1/KI is the slope of the v0/vi curve in function of compound concentration, where v0 and vi are the initial reaction rates in absence and presence of compound respectively.
# E. faecalis EFA 103.214 = assay: MIC, E. faecalis EFA 103.214; type: cell-based
# Description: as §1, §2, §3
# [3] = tested on: E. coli AG100A (AcrAB- derivative); assay: MIC by microdilution, E. coli AG100A; type: cell-based; conditions: for MIC: Escherichia coli, 18 h, read-out: MIC AG100A; for MIC AG100A: with PMBN at 1/5 of its MIC, 18 h at 37 °C, average of three assays
# Description: as §1, §2, §3
# EcPDF = molecular target: T2, EcPDF (Escherichia coli, UniProt P0A6K3); assay: PDF inhibition, formate dehydrogenase-coupled spectrophotometric assay (EcPDF); type: biochemical; conditions: for EcPDF KI/KI*app: enhancement potency (slow tight-binding)
# T2 construct: made in house
# Method: as §4, with “The” for “Enzymatic activity was measured by a spectrophotometric assay where peptide deformylase activity is coupled to that of formate dehydrogenase. The”
# as §5, §6
# S. aureus SA113 = assay: MIC, S. aureus SA113; type: cell-based; conditions: Staphylococcus aureus
# Description: as §1, §2, §3
# AtPDF1B = molecular target: T3, AtPDF1B (Arabidopsis thaliana, UniProt Q9FUZ2); assay: PDF inhibition, formate dehydrogenase-coupled spectrophotometric assay (AtPDF1B); type: biochemical; conditions: 100 nM AtPDF1B; for IC50: 2 mM Fo-Met-Ala-Ser, 10 min pre-incubation at 37 °C; for Ki: PDFI pre-incubated with enzyme 10 min at 37 °C, read-out: AtPDF1B KI*app
# T3 construct: made in house
# T3 sequence (Q9FUZ2 83-273): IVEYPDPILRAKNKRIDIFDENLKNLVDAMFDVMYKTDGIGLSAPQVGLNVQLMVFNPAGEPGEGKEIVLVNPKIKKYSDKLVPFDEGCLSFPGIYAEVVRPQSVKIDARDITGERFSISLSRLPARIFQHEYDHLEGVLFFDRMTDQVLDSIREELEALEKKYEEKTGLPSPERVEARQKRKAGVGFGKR
# Method: as §4, §5, §6
# [4] = tested on: E. aerogenes Ea289, MDR strain; assay: MIC by microdilution, E. aerogenes Ea289; type: cell-based, Enterobacter aerogenes; conditions: for MIC Ea289: +PMBN at 1/5 of its MIC, average of three assays; for MIC: Klebsiella aerogenes, 18 h, read-out: MIC Ea289
# Description: as §1, §2, §3
# [5] = tested on: E. aerogenes Ea298, Ea289 derivative tolC-; assay: MIC by microdilution, E. aerogenes Ea298; type: cell-based, Enterobacter aerogenes; conditions: for MIC Ea298: +PMBN at 1/5 of its MIC, average of three assays; for MIC: Klebsiella aerogenes, 18 h, read-out: MIC Ea298
# Description: as §1, §2, §3
# [6] = tested on: E. aerogenes Ea294, Ea289 derivative AcrAB-; assay: MIC by microdilution, E. aerogenes Ea294; type: cell-based, Enterobacter aerogenes; conditions: for MIC Ea294: +PMBN at 1/5 of its MIC, average of three assays; for MIC: Klebsiella aerogenes, 18 h, read-out: MIC Ea294
# Description: as §1, §2, §3
# [7] = Enterococcus faecalis, EFA103.214, read-out: MIC E. faecalis EFA 103.214
# [8] = EcPDF KI*app, PDFI pre-incubated with enzyme 10 min at 37 °C, started by 2 mM Fo-Met-Ala-Ser, 10 nM EcPDF
# [9] = 10 nM EcPDF, 2 mM Fo-Met-Ala-Ser, 10 min pre-incubation at 37 °C, read-out: IC50 EcPDF
# [10] = PDFI pre-incubated with enzyme 10 min at 37 °C, started by 2 mM Fo-Met-Ala-Ser, 10 nM EcPDF, read-out: EcPDF KI*app
# T2 sequence (P0A6K3 whole entry): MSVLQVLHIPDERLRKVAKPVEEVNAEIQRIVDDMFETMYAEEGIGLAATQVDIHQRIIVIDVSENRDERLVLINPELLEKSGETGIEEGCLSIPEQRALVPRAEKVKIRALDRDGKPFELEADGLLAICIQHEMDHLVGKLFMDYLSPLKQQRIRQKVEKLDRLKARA
# T1 sequence (Q8E378 whole entry S2A): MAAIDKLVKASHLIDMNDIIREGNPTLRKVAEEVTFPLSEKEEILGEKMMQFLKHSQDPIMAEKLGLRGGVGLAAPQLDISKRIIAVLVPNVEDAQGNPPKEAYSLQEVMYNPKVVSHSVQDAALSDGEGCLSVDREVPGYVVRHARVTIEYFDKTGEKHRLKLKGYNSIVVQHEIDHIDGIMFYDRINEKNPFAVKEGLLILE
Compound,MIC (E. coli AG100) [µg/mL],MIC AG100 (E. coli AG100) [µg/mL],Ki (SaPDF [1]) [µM],IC50 (SaPDF [2]) [µM],MIC (E. faecalis EFA 103.214; [7]) [µg/mL],MIC [3] [µg/mL],MIC AG100A [3] [µg/mL],IC50 (EcPDF) [µM],Ki (EcPDF; [8]) [µM],MIC (S. aureus SA113) [µg/mL],IC50 (AtPDF1B) [µM],MIC Ea289 [4] [µg/mL],MIC [4] [µg/mL],MIC Ea298 [5] [µg/mL],MIC [5] [µg/mL],MIC Ea294 [6] [µg/mL],MIC [6] [µg/mL],IC50 (EcPDF; [9]) [µM],also measured
CCCCC(CC(=O)NO)c1nc(Cc2ccc(C)cc2)no1 (centres unmarked) [AT012],> 64,32,0.4 ± 0.035,0.067 ± 0.005,> 64,64,8,0.027 ± 0.003,0.07 ± 0.008,> 64,0.46 ± 0.022,–,–,–,–,–,–,–,Ki (AtPDF1B; started by 2 mM Fo-Met-Ala-Ser): 0.625 ± 0.03 µM
"O=C(N[C@H](CO)[C@H](O)c1ccc([N+](=O)[O-])cc1)C(Cl)Cl [Chloramphenicol, chloramphenicol, reference compound]",–,–,–,–,–,–,–,–,–,–,–,8,> 128,4,32,4,32,–,–
CCCCC(CC(=O)NO)c1nc(-c2ccccc2)no1 (centres unmarked) [AT006],> 64,64,–,–,> 64,> 64,32,–,–,> 64,–,–,–,–,–,–,–,0.155,–
CCCCC(CC(=O)NO)c1nc(C(=O)OCC)co1 (centres unmarked) [AT004],> 64,>64,–,–,> 64,> 64,32,–,–,> 64,–,–,–,–,–,–,–,0.11,–
CCCC[C@H](CC(=O)NO)c1nc(-c2ccccc2)co1 [AT003],> 64,64,–,–,> 64,> 64,16,–,–,> 64,–,–,–,–,–,–,–,0.19,–
CCCCC(CC(=O)NO)c1nc(Cc2nc3ccccc3s2)no1 (centres unmarked) [AT017],> 64,64,0.085 ± 0.008,0.023 ± 0.004,> 64,64,8,–,–,> 64,–,–,–,–,–,–,–,0.03 ± 0.008,Ki (EcPDF; [10]): 0.041 ± 0.003 µM
CCCCC(CC(=O)NO)c1nc(Cc2ccc3c(c2)OCO3)no1 (centres unmarked) [AT016],> 64,64,0.055 ± 0.005,0.01 ± 0.002,–,64,8,–,–,> 64,–,–,–,–,–,–,–,0.01 ± 0.001,"Ki (SaPDF [2]): 0.067 ± 0.007 µM; SaPDF KI/KI*app (SaPDF [2]): 1; MIC (E. faecalis EFA 103.214; Enterococcus faecalis, EFA103.214; read-out: MIC E. faecalis EFA 103.214): > 64 µg/mL; Ki (EcPDF; [10]): 0.026 ± 0.005 µM; EcPDF KI/KI*app (EcPDF): 1; Ki (EcPDF; no pre-incubation, assay initiated by addition of enzyme, 10 nM EcPDF, 37 °C, read-out: EcPDF KI): 0.025 ± 0.003 µM"
CCCC[C@H](CC(=O)NO)c1nc(Cc2ccc(OC(F)(F)F)cc2)no1 [AT013],> 64,16,0.051 ± 0.003,0.011 ± 0.001,> 64,32,4,0.078 ± 0.011,0.08 ± 0.01,> 64,0.5 ± 0.015,64,> 128,16,128,16,> 128,–,"Ki (SaPDF [2]): 0.07 ± 0.005 µM; SaPDF KI/KI*app (SaPDF [2]): 1; Ki (EcPDF; EcPDF KI, no pre-incubation, assay initiated by addition of enzyme, 10 nM EcPDF, 37 °C): 0.073 ± 0.012 µM; EcPDF KI/KI*app (EcPDF): 1; Ki (AtPDF1B; started by 2 mM Fo-Met-Ala-Ser): 0.303 ± 0.012 µM"
CCCCC(CC(=O)NO)c1nc(-c2ccc([N+](=O)[O-])cc2)no1 (centres unmarked) [AT001],> 64,>64,–,–,–,> 64,32,–,–,–,–,–,–,–,–,–,–,0.16,–
CCCC[C@H](CC(=O)NO)c1nc(Cc2ccc(C(=O)O)cc2)no1 [AT021],–,–,0.2 ± 0.01,0.211 ± 0.01,–,–,–,0.075 ± 0.002,0.076 ± 0.005,–,8.2 ± 1,–,–,–,–,–,–,–,Ki (AtPDF1B): ~10 µM
"CC(C)(O/N=C(\C(=O)N[C@@H]1C(=O)N2C(C(=O)[O-])=C(C[n+]3ccccc3)CS[C@H]12)c1csc(N)n1)C(=O)O [Ceftazidim, ceftazidime, reference compound]",–,–,–,–,–,–,–,–,–,–,–,64,> 128,64,> 128,64,> 128,–,–
"O=C(O)c1cn(C2CC2)c2cc(N3CCNCC3)c(F)cc2c1=O [Ciprofloxacin, ciprofloxacin, reference compound]",–,–,–,–,–,–,–,–,–,–,–,64,64,4,8,8,16,–,–
CCCCC(CC(=O)NO)c1nc(Cc2ccc(-c3ccccc3)cc2)no1 (centres unmarked) [AT014],> 64,64,0.065 ± 0.01,0.016 ± 0.002,> 64,> 64,64,0.025 ± 0.004,0.066 ± 0.003,> 64,0.55 ± 0.025,–,–,–,–,–,–,–,Ki (SaPDF [2]): 0.084 ± 0.006 µM; SaPDF KI/KI*app (SaPDF [2]): 1; Ki (AtPDF1B; started by 2 mM Fo-Met-Ala-Ser): 0.909 ± 0.032 µM
